These molecules were tested against T1, human mPGES-1 (Homo sapiens, UniProt O14684) (assay: Test for mPGES-1 inhibitory activity (microsomal enzyme, PGE2 EIA)). Details: microsomes from COS-1 cells transfected with human mPGES-1 cDNA; substrate PGH2 1 μM; 4° C., 4 minutes; PGE2 measured by EIA; read-out: h mPGES1 IC50.
T1 construct: made in house; host or cells: COS-1 cells (transient transfection; microsomal fraction used as enzyme)
T1 sequence (O14684 1-152): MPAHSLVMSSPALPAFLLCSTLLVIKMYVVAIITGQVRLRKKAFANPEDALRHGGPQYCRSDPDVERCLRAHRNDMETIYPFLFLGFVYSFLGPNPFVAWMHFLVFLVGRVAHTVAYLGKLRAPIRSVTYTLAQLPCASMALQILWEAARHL
Type: biochemical
Method in brief: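 IC50 values were derived from EIA-quantified PGE2 after a 4 min, 4 °C reaction with PGH2 at 1 μM final, stopped with ferric chloride/citric acid. Beforehand, compound (2% DMSO final) sat 15 min at 4 °C with human mPGES-1 microsomes from transiently transfected COS-1 cells. Buffer was sodium phosphate pH 7.2 containing 2.5 mM reduced glutathione and 1 mM EDTA.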

Structure (SMILES)	IC50
O=C(NCc1ccc(C(F)(F)F)c(-c2nc3c(c(=O)[nH]2)CCC3)c1F)C1CCN(c2ccc(Cl)cc2)CC1 [Example 89, 1-(4-chlorophenyl)-N-[2-fluoro-3-(4-oxo-4,5,6,7-tetrahydro-3H-cyclopenta[d]pyrimidin-2-yl)-4-(trifluoromethyl)benzyl]piperidine-4-carboxamide]	< 1 nM
O=c1cc(C(F)(F)F)nc(-c2c(C(F)(F)F)ccc(CNC(=O)[C@H]3CC[C@H](OCc4ccc(Cl)cc4F)CC3)c2F)[nH]1 [Example 118, trans-4-[(4-chloro-2-fluorobenzyl)oxy]-N-{2-fluoro-3-[6-oxo-4-(trifluoromethyl)-1,6-dihydropyrimidin-2-yl]-4-(trifluoromethyl)benzyl}cyclohexane-1-carboxamide]	< 1 nM
O=c1cc(C(F)(F)F)nc(-c2c(C(F)(F)F)ccc(CNC(=O)[C@H]3C[C@H](OCc4ccc(Cl)cc4)C3)c2F)[nH]1 [Example 140, trans-3-[(4-chlorobenzyl)oxy]-N-{2-fluoro-3-[6-oxo-4-(trifluoromethyl)-1,6-dihydropyrimidin-2-yl]-4-(trifluoromethyl)benzyl}cyclobutane-1-carboxamide]	1 nM
Cc1cc(=O)[nH]c(-c2c(C(F)(F)F)ccc(CNC(=O)[C@H]3CC[C@H](OCc4cc(F)cc(Cl)c4)CC3)c2F)n1 [Example 122, trans-4-[(3-chloro-5-fluorobenzyl)oxy]-N-[2-fluoro-3-(4-methyl-6-oxo-1,6-dihydropyrimidin-2-yl)-4-(trifluoromethyl)benzyl]cyclohexane-1-carboxamide]	< 1 nM
O=C(NCc1ccc(C(F)(F)F)c(-c2nccc(=O)[nH]2)c1F)C1CCN(c2ccc(C(F)(F)F)cn2)CC1 [Example 28, N-[2-fluoro-3-(6-oxo-1,6-dihydropyrimidin-2-yl)-4-(trifluoromethyl)benzyl]-1-[5-(trifluoromethyl)pyridin-2-yl]piperidine-4-carboxamide]	< 1 nM
CCc1cc(=O)[nH]c(-c2c(C(F)(F)F)ccc(CNC(=O)[C@H]3CC[C@H](OCc4ccc(F)cc4F)CC3)c2F)n1 [Example 129, trans-4-[(2,4-difluorobenzyl)oxy]-N-[3-(4-ethyl-6-oxo-1,6-dihydropyrimidin-2-yl)-2-fluoro-4-(trifluoromethyl)benzyl]cyclohexane-1-carboxamide]	25 nM
O=c1cc(C(F)(F)F)nc(-c2c(C(F)(F)F)ccc(CNC(=O)[C@H]3CC[C@H](OCc4cccc(Cl)c4)CC3)c2F)[nH]1 [Example 100, trans-4-[(3-chlorobenzyl)oxy]-N-{2-fluoro-3-[6-oxo-4-(trifluoromethyl)-1,6-dihydropyrimidin-2-yl]-4-(trifluoromethyl)benzyl}cyclohexane-1-carboxamide]	< 1 nM
Cc1cnc2ccc(N3CCC(C(=O)NCc4ccc(C(F)(F)F)c(-c5nc(C(F)(F)F)cc(=O)[nH]5)c4F)CC3)nn12 [Example 3, N-{2-fluoro-3-[6-oxo-4-(trifluoromethyl)-1,6-dihydropyrimidin-2-yl]-4-(trifluoromethyl)benzyl}-1-(3-methylimidazo[1,2-b]pyridazin-6-yl)piperidine-4-carboxamide]	< 1 nM
O=C(NCc1ccc(C(F)(F)F)c(-c2nc(C(F)(F)F)cc(=O)[nH]2)c1F)C1CCN(c2ccc(OC(F)F)cc2)CC1 [Example 71, 1-[4-(difluoromethoxy)phenyl]-N-{2-fluoro-3-[6-oxo-4-(trifluoromethyl)-1,6-dihydropyrimidin-2-yl]-4-(trifluoromethyl)benzyl}piperidine-4-carboxamide]	10 nM
Cc1cccc2ccc(N3CC(C(=O)NCc4ccc(C(F)(F)F)c(-c5nc(C(F)(F)F)cc(=O)[nH]5)c4F)C3)nc12 [Example 6, N-{2-fluoro-3-[6-oxo-4-(trifluoromethyl)-1,6-dihydropyrimidin-2-yl]-4-(trifluoromethyl)benzyl}-1-(8-methylquinolin-2-yl)azetidine-3-carboxamide]	< 10 nM
O=C(NCc1ccc(C(F)(F)F)c(-c2nc(C(F)(F)F)cc(=O)[nH]2)c1F)C1CCN(c2ccc3ccccc3n2)CC1 [Example 5, N-{2-fluoro-3-[6-oxo-4-(trifluoromethyl)-1,6-dihydropyrimidin-2-yl]-4-(trifluoromethyl)benzyl}-1-(quinolin-2-yl)piperidine-4-carboxamide]	< 10 nM
Cc1nc(-c2c(C(F)(F)F)ccc(CNC(=O)[C@H]3CC[C@H](OCc4ccc(Cl)cc4F)CC3)c2F)[nH]c(=O)c1F [Example 128, trans-4-[(4-chloro-2-fluorobenzyl)oxy]-N-[2-fluoro-3-(5-fluoro-4-methyl-6-oxo-1,6-dihydropyrimidin-2-yl)-4-(trifluoromethyl)benzyl]cyclohexane-1-carboxamide]	13 nM

Same assay, conditions: microsomes of COS-1 cells transfected with human mPGES-1 cDNA; PGH2 1 μM; 4° C., 4 minutes; PGE2 by EIA; read-out: h mPGES1 IC50

Structure (SMILES)	IC50
Cc1nc(-c2c(C(F)(F)F)ccc(CNC(=O)[C@H]3C[C@H](OCc4ccc(F)cc4Cl)C3)c2F)[nH]c(=O)c1F [Example 224, trans-3-[(2-chloro-4-fluorobenzyl)oxy]-N-[2-fluoro-3-(5-fluoro-4-methyl-6-oxo-1,6-dihydropyrimidin-2-yl)-4-(trifluoromethyl)benzyl]cyclobutane-1-carboxamide]	< 1 nM
CCc1nc(-c2c(C(F)(F)F)ccc(CNC(=O)[C@H]3C[C@H](OCc4cccc(C(F)(F)F)c4)C3)c2F)[nH]c(=O)c1F [Example 233, trans-N-[3-(4-ethyl-5-fluoro-6-oxo-1,6-dihydropyrimidin-2-yl)-2-fluoro-4-(trifluoromethyl)benzyl]-3-{[3-(trifluoromethyl)benzyl]oxy}cyclobutane-1-carboxamide]	< 1 nM
CCc1nc(-c2c(C(F)(F)F)ccc(CNC(=O)[C@H]3C[C@H](OCc4ccccc4C(F)(F)F)C3)c2F)[nH]c(=O)c1F [Example 232, trans-N-[3-(4-ethyl-5-fluoro-6-oxo-1,6-dihydropyrimidin-2-yl)-2-fluoro-4-(trifluoromethyl)benzyl]-3-{[2-(trifluoromethyl)benzyl]oxy}cyclobutane-1-carboxamide]	< 1 nM
O=C(NCc1ccc(C(F)(F)F)c(-c2nc(C(F)(F)F)cc(=O)[nH]2)c1F)C1CCN(C(=O)Cc2ccc(F)cc2)CC1 [Example 275, N-{2-fluoro-3-[6-oxo-4-(trifluoromethyl)-1,6-dihydropyrimidin-2-yl]-4-(trifluoromethyl)benzyl}-1-[2-(4-fluorophenyl)acetyl]piperidine-4-carboxamide]	0.94 nM
O=c1cc(C(F)F)nc(-c2c(C(F)(F)F)ccc(CNC(=O)[C@H]3C[C@H](OCc4ccc(F)cc4F)C3)c2F)[nH]1 [Example 167, trans-3-[(2,4-difluorobenzyl)oxy]-N-{3-[4-(difluoromethyl)-6-oxo-1,6-dihydropyrimidin-2-yl]-2-fluoro-4-(trifluoromethyl)benzyl}cyclobutane-1-carboxamide]	< 1 nM
CCc1cc(=O)[nH]c(-c2c(C(F)(F)F)ccc(CNC(=O)[C@H]3C[C@H](OCc4ccc(Cl)cc4)C3)c2F)n1 [Example 197, trans-3-[(4-chlorobenzyl)oxy]-N-[3-(4-ethyl-6-oxo-1,6-dihydropyrimidin-2-yl)-2-fluoro-4-(trifluoromethyl)benzyl]cyclobutane-1-carboxamide]	3.7 nM
CCc1cc(=O)[nH]c(-c2c(C(F)(F)F)ccc(CNC(=O)[C@H]3C[C@H](OCc4ccc(C(F)(F)F)cc4)C3)c2F)n1 [Example 200, trans-N-[3-(4-ethyl-6-oxo-1,6-dihydropyrimidin-2-yl)-2-fluoro-4-(trifluoromethyl)benzyl]-3-{[4-(trifluoromethyl)benzyl]oxy}cyclobutane-1-carboxamide]	6.5 nM
O=c1cc(C(F)(F)F)nc(-c2c(C(F)(F)F)ccc(CNC(=O)[C@H]3C[C@H](OCc4ccc(Cl)cc4F)C3)c2F)[nH]1 [Example 149, trans-3-[(4-chloro-2-fluorobenzyl)oxy]-N-{2-fluoro-3-[6-oxo-4-(trifluoromethyl)-1,6-dihydropyrimidin-2-yl]-4-(trifluoromethyl)benzyl}cyclobutane-1-carboxamide]	< 1 nM
O=C(NCc1ccc(C(F)(F)F)c(-c2nc(C(F)(F)F)cc(=O)[nH]2)c1F)C1Cc2ccccc2C1 [Example 280, N-{2-fluoro-3-[6-oxo-4-(trifluoromethyl)-1,6-dihydropyrimidin-2-yl]-4-(trifluoromethyl)benzyl}-2,3-dihydro-1H-indene-2-carboxamide]	< 1 nM
O=C(NCc1ccc(C(F)(F)F)c(-c2nc(C(F)(F)F)cc(=O)[nH]2)c1F)C1(c2ccc(Cl)cc2)CCCC1 [Example 281, 1-(4-chlorophenyl)-N-{2-fluoro-3-[6-oxo-4-(trifluoromethyl)-1,6-dihydropyrimidin-2-yl]-4-(trifluoromethyl)benzyl}cyclopentane-1-carboxamide]	45 nM
O=c1cc(C(F)F)nc(-c2c(C(F)(F)F)ccc(CNC(=O)[C@H]3C[C@H](OCc4ccccc4Cl)C3)c2F)[nH]1 [Example 161, trans-3-[(2-chlorobenzyl)oxy]-N-{3-[4-(difluoromethyl)-6-oxo-1,6-dihydropyrimidin-2-yl]-2-fluoro-4-(trifluoromethyl)benzyl}cyclobutane-1-carboxamide]	< 1 nM
Cc1cc(=O)[nH]c(-c2c(C(F)(F)F)ccc(CNC(=O)[C@H]3C[C@H](OCc4ccc(F)c(Cl)c4)C3)c2F)n1 [Example 193, trans-3-[(3-chloro-4-fluorobenzyl)oxy]-N-[2-fluoro-3-(4-methyl-6-oxo-1,6-dihydropyrimidin-2-yl)-4-(trifluoromethyl)benzyl]cyclobutane-1-carboxamide]	< 1 nM

From US20250340557A1, “PYRIMIDINE DERIVATIVE” (ASKA PHARMACEUTICAL CO., LTD., priority 2022, published 2025)
